Laboratory results reported in patent US11401277B2, “Anti-bacterial heterocyclic compounds and their synthesis” (Bugworks Research, Inc., priority 2017, dated 2022).
≈ marks a conversion by molar mass, not a printed value. Where “and” joins values, the source holds several entries; their conditions need not be identical. Equal entries are not always repeated.

What was measured:
[1] = system: K. pneumoniae clinical strains; assay: Susceptibility (MIC50 and MIC90 determination) studies, clinical strains; format: cell-based; details: CLSI
[2] = system: P. aeruginosa [ATCC27853]; assay: Neutropenic Lung Infection Model in Rat; format: in vivo; details: 30 mg/kg, i.v. bolus
Protocol: Animals were placed into an induction chamber and anaesthesia was induced by exposing the animals to 3-5% Isoflurane in an oxygen flow set at approximately (˜) 1 liter per minute (LPM). […] A gentle mixing of inoculum between two animals was followed for uniform distribution.
Meropenem was formulated in saline.
Entire Lung was aseptically isolated, weighed and placed into 1 mL of sterile CSDB broth, and homogenized (Omni Tip (220 V hand held)). Serial ten-fold dilutions of the lungs homogenates were prepared in sterile CSD broth and 0.05 mL of four dilutions for each tissue was plated onto CSDA agar plates. Bacterial colonies were enumerated following overnight incubation at 37° C. Bacterial densities were estimated as Log10 CFU/g lung. The Mean±SD Log10 CFU/g lung was estimated in each group.

[3] = system: E. cloacae clinical strains; assay: Susceptibility (MIC50 and MIC90 determination) studies, clinical strains; format: cell-based; details: CLSI
E. coli [ATCC25922] = assay: Urinary Tract Infection Rat Model (kidneys, bladder); details: 30 mg/kg, i.v. bolus
[4] = system: A. baumanni clinical strains; assay: Susceptibility (MIC50 and MIC90 determination) studies, clinical strains; format: cell-based; details: CLSI
E. coli clinical strains = assay: as above; format: cell-based; details: CLSI
[5] = system: P. aurigenosa clinical strains; assay: as above; format: cell-based; details: CLSI
[6] = Klebsiella pneumoniae, Kpn clinical strains
[7] = individual animals, 24 h post infection
[8] = Escherichia coli, E. coli clinical strains

C[C@@H](O)[C@H]1C(=O)N2C(C(=O)O)=C(S[C@@H]3CN[C@H](C(=O)N(C)C)C3)[C@H](C)[C@H]12 [Meropenem, meropenem, reference compound]
MIC50 [1, 6]: 1 µg/mL (≈ 2.61 µM) | MIC90 [1, 6]: 16 µg/mL (≈ 41.7 µM) | Minimum (MIC) ([1]; Kpn clinical strains, MIC50/MIC90 in μg/ml): 0.03 µg/mL | MIC ATCC13883 ([1]; Kpn reference strain ATCC13883, MIC50/MIC90 in μg/ml): 0.06 µg/mL (≈ 0.156 µM) | MEAN ± SD (Log10 CFU/g Lung) [2]: 5.43 ± 0.14 Log10 CFU/g Lung | Mean Log 10 CFU/g lung reduction (wrt 4 h PI control: 6.52 Log10CFU/g lung) [2]: 1.09 Log 10 CFU/g lung | Log10 CFU/g Lung [2, 7]: 5.35 Log10 CFU/g Lung and 5.36 Log10 CFU/g Lung and 5.59 Log10 CFU/g Lung | Minimum (MIC) ([3]; MIC50/MIC90 in μg/ml): 0.06 µg/mL | MIC50 ([3]; Enterobacter cloacae): 0.25 µg/mL (≈ 0.652 µM) | MIC90 ([3]; Enterobacter cloacae): 16 µg/mL (≈ 41.7 µM) | MEAN ± SD (Log10 CFU/g kidneys) (E. coli [ATCC25922]): 3.83 ± 0.27 Log10 CFU/g kidneys | MEAN ± SD (Log10 CFU/ml Bladder) (E. coli [ATCC25922]): 4.69 ± 0.32 Log10 CFU/ml Bladder | Mean Log10CFU/g kidney reduction (wrt 4 h PI control: 4.53 Log10CFU/g kidneys) (E. coli [ATCC25922]): 0.70 Log10CFU/g kidney | Mean Log10 CFU/ml Bladder reduction (wrt 4 h PI control: 5.72 CFU/ml Bladder) (E. coli [ATCC25922]): 1.03 Log10 CFU/ml Bladder | Log10 CFU/g (Left Kidney) (E. coli [ATCC25922]; [7]): 3.61 Log10 CFU/g and 3.92 Log10 CFU/g and 4.06 Log10 CFU/g | Log10 CFU/g (Right Kidney) (E. coli [ATCC25922]; [7]): 3.41 Log10 CFU/g and 4.12 Log10 CFU/g and 3.87 Log10 CFU/g | Log10 CFU/ml Bladder (E. coli [ATCC25922]; [7]): 4.87 Log10 CFU/ml Bladder and 4.33 Log10 CFU/ml Bladder and 4.89 Log10 CFU/ml Bladder | MIC50 ([4]; Aba clinical strains): 8 µg/mL (≈ 20.9 µM) | MIC90 ([4]; Aba clinical strains): 32 µg/mL (≈ 83.4 µM) | Minimum (MIC) ([4]; Aba clinical strains, MIC50/MIC90 in μg/ml, in µg/mL): 0.03125 | MIC ATCC19606 ([4]; Aba reference strain ATCC19606, MIC50/MIC90 in μg/ml): 0.5 µg/mL (≈ 1.3 µM) | Minimum (MIC) (E. coli clinical strains; E. coli clinical strains, MIC50/MIC90 in μg/ml): 0.03 µg/mL | MIC ATCC25922 (E. coli clinical strains; E. coli reference strain ATCC25922, MIC50/MIC90 in μg/ml): 0.06 µg/mL (≈ 0.156 µM) | MIC50 (E. coli clinical strains; [8]): 0.06 µg/mL (≈ 0.156 µM) | MIC90 (E. coli clinical strains; [8]): 4 µg/mL (≈ 10.4 µM) | MIC50 ([5]; Pae clinical strains): 2 µg/mL (≈ 5.22 µM) | MIC90 ([5]; Pae clinical strains): 8 µg/mL (≈ 20.9 µM) | Minimum (MIC) ([5]; Pae clinical strains, MIC50/MIC90 in μg/ml): 0.03 µg/mL | MIC ATCC27853 ([5]; Pae reference strain ATCC27853, MIC50/MIC90 in μg/ml): 0.5 µg/mL (≈ 1.3 µM)
